The NIST ThermoML archive (doi:10.1016/j.fluid.2005.10.023)
Numbers after ± are expanded uncertainties.

Test: xn = mol fraction of the nth substance listed
Conditions: Gas, Other PVT measurement

## CCCCCl [1-chlorobutane] + O=C=O
323.15 K, x1 = 0.0257
  mass density: 347 ± 20 kg/m3
323.15 K, x1 = 0.03
  mass density: 386 ± 20 kg/m3
323.15 K, x1 = 0.0363
  mass density: 442 ± 20 kg/m3
323.15 K, x1 = 0.04
  mass density: 468 ± 20 kg/m3
328.15 K, x1 = 0.0257
  mass density: 300 ± 20 kg/m3
328.15 K, x1 = 0.03
  mass density: 343 ± 20 kg/m3
328.15 K, x1 = 0.0363
  mass density: 390 ± 20 kg/m3
328.15 K, x1 = 0.04
  mass density: 407 ± 20 kg/m3
328.15 K, x1 = 0.0497
  mass density: 467 ± 20 kg/m3
333.15 K, x1 = 0.03
  mass density: 286 ± 20 kg/m3
333.15 K, x1 = 0.0363
  mass density: 345 ± 20 kg/m3
333.15 K, x1 = 0.04
  mass density: 380 ± 20 kg/m3
333.15 K, x1 = 0.0497
  mass density: 419 ± 20 kg/m3

## Clc1ccccc1 [chlorobenzene] + O=C=O
323.15 K, x1 = 0.024
  mass density: 471 ± 20 kg/m3
323.15 K, x1 = 0.0293
  mass density: 507 ± 20 kg/m3
323.15 K, x1 = 0.204
  mass density: 437 ± 20 kg/m3
328.15 K, x1 = 0.024
  mass density: 441 ± 20 kg/m3
328.15 K, x1 = 0.0293
  mass density: 481 ± 20 kg/m3
328.15 K, x1 = 0.0352
  mass density: 516 ± 20 kg/m3
328.15 K, x1 = 0.04
  mass density: 534 ± 20 kg/m3
328.15 K, x1 = 0.204
  mass density: 406 ± 20 kg/m3
333.15 K, x1 = 0.024
  mass density: 417 ± 20 kg/m3
333.15 K, x1 = 0.0293
  mass density: 458 ± 20 kg/m3
333.15 K, x1 = 0.0352
  mass density: 493 ± 20 kg/m3
333.15 K, x1 = 0.04
  mass density: 516 ± 20 kg/m3
333.15 K, x1 = 0.0482
  mass density: 556 ± 20 kg/m3
333.15 K, x1 = 0.204
  mass density: 386 ± 20 kg/m3

## CCCCCC [hexane] + O=C=O
323.15 K, x1 = 0.0373
  mass density: 355 ± 21 kg/m3
323.15 K, x1 = 0.0471
  mass density: 451 ± 20 kg/m3
323.15 K, x1 = 0.052
  mass density: 477 ± 20 kg/m3
328.15 K, x1 = 0.0373
  mass density: 294 ± 21 kg/m3
328.15 K, x1 = 0.0471
  mass density: 396 ± 20 kg/m3
328.15 K, x1 = 0.052
  mass density: 423 ± 20 kg/m3
328.15 K, x1 = 0.0618
  mass density: 436 ± 20 kg/m3
333.15 K, x1 = 0.0373
  mass density: 249 ± 20 kg/m3
333.15 K, x1 = 0.0471
  mass density: 343 ± 20 kg/m3
333.15 K, x1 = 0.052
  mass density: 378 ± 20 kg/m3
333.15 K, x1 = 0.0618
  mass density: 392 ± 20 kg/m3

## C=Cc1ccccc1 [styrene] + O=C=O
323.15 K, x1 = 0.0182
  mass density: 479 ± 20 kg/m3
323.15 K, x1 = 0.0256
  mass density: 494 ± 20 kg/m3
323.15 K, x1 = 0.03
  mass density: 521 ± 20 kg/m3
328.15 K, x1 = 0.0182
  mass density: 450 ± 20 kg/m3
328.15 K, x1 = 0.0256
  mass density: 471 ± 20 kg/m3
328.15 K, x1 = 0.03
  mass density: 499 ± 20 kg/m3
328.15 K, x1 = 0.0343
  mass density: 529 ± 20 kg/m3
328.15 K, x1 = 0.0393
  mass density: 547 ± 20 kg/m3
328.15 K, x1 = 0.0476
  mass density: 580 ± 20 kg/m3
333.15 K, x1 = 0.0182
  mass density: 430 ± 20 kg/m3
333.15 K, x1 = 0.0256
  mass density: 453 ± 20 kg/m3
333.15 K, x1 = 0.03
  mass density: 479 ± 20 kg/m3
333.15 K, x1 = 0.0343
  mass density: 507 ± 20 kg/m3
333.15 K, x1 = 0.0393
  mass density: 527 ± 20 kg/m3
333.15 K, x1 = 0.0476
  mass density: 560 ± 20 kg/m3
